Test results reported in patent US20230053688A1, “METHODS TO ALTER LATENCY IN EBV+ MALIGNANCIES” (Cornell University, priority 2020, published 2023).
Like-named read-outs stand apart in the source and are kept apart here.

System: LMP1 expression in Kem I cells
Assay: microbe, parasite or virus in culture
Format: cell-based, EBV
Conditions: for fold induction at 2.5 µM / fold induction at 1 µM: human gammaherpesvirus 4, 48 h
[1] = Kem I cells, 2.5 uM, 48 hours, average of replicates 1 and 2
[2] = Kem I cells, 2.5 uM, 48 hours, fold change in LMP1 transcript vs vehicle
[3] = read-out: Average LMP1 Fold Increase, Kem I cells, 2.5 uM, 48 hours, average of replicates 1 and 2
[4] = read-out: Replicate 1-LMP1 Fold Increase, Kem I cells, 2.5 uM, 48 hours, fold change in LMP1 transcript vs vehicle
[5] = read-out: Replicate 2-LMP1 Fold Increase, Kem I cells, 2.5 uM, 48 hours, fold change in LMP1 transcript vs vehicle

Compound | Average LMP1 Fold Increase [1] | Replicate 1-LMP1 Fold Increase [2] | Replicate 2-LMP1 Fold Increase [2] | further results
O=C(Nc1cccnc1)N1CCC(Cc2cccc(Oc3ccc(C(F)(F)F)cn3)c2)CC1 [PF-3845] | 0.32 | 0.16 | 0.48 | 
CN(c1ncccc1CNc1nc(Nc2ccc3c(c2)CC(=O)N3)ncc1C(F)(F)F)S(C)(=O)=O [PF-562271] | 0.50 | 0.81 | 0.19 | 
CS(=O)(=O)c1cccc(CNc2nc(Nc3ccc4c(c3)CCC(=O)N4)ncc2C(F)(F)F)c1 [PF-573228] | 0.66 | 0.87 | 0.45 | 
OCCn1cc(-c2cnc3nnn(Cc4ccc5ncccc5c4)c3n2)cn1 [PF-04217903] | 1.03 | 0.96 | 1.11 | 
CCc1cncnc1N1CCN(Cc2nc3ccc(C(F)(F)F)cc3[nH]2)CC1 [PF-4708671] | 0.74 | 1.30 | 0.18 | 
Cc1cnc(-c2cc(N3CCN(C(=O)CCS(C)(=O)=O)CC3)ncc2Cl)c(C)c1 [PF-5274857] | 0.87 | 1.12 | 0.62 | 
COc1ccccc1S(=O)(=O)Nc1ccc2c(c1)CN(C)C(=O)N2 [PFI-1 (PF-6405761)] | 0.78 | 0.42 | 1.15 | 
Cc1[nH]c(/C=C2\C(=O)Nc3ccc(S(=O)(=O)Cc4c(Cl)cccc4Cl)cc32)c(C)c1C(=O)N1CCC[C@@H]1CN1CCCC1 [PHA-665752] |  |  |  | fold induction at 2.5 µM [3]: 0.69; fold induction at 2.5 µM [4]: 0.55; fold induction at 2.5 µM [5]: 0.84
CC(C)CC(=O)Nc1[nH]nc2c1CN(C(=O)C1CCN(C)CC1)C2(C)C [PHA-793887] |  |  |  | fold induction at 2.5 µM [3]: 2.82; fold induction at 2.5 µM [4]: 0.58; fold induction at 2.5 µM [5]: 5.05
COc1cc(OC)c(NC(=O)Nc2cc(C)on2)cc1Cl [PNU-120596] | 0.30 | 0.17 | 0.44 | 
CC(C)(C)n1nc(-c2ccc(Cl)cc2)c2c(N)ncnc21 [PP2] | 1.01 | 0.73 | 1.28 | 
N#CSc1cc(SC#N)c(N)nc1N [PR-619] | 0.31 | 0.23 | 0.39 | 
Cl.NC(=O)c1cnc(N[C@@H]2CCCC[C@@H]2N)nc1Nc1cccc(-n2nccn2)c1 [PRT062607(P505-15, BIIB057) HCl] | 0.54 | 0.25 | 0.83 | 
COc1cc(Br)c(Nc2nc(-c3c(C)nc4ncccn34)cs2)c(Br)c1 [PTC-209] |  |  |  | Average LMP1 Fold Increase: 0.90; Replicate 1-LMP1 Fold Increase: 0.34; Replicate 2-LMP1 Fold Increase: 1.46
CC(C)NCCCn1c(Sc2cc3c(cc2I)OCO3)nc2c(N)ncnc21 [PU-H71] |  |  |  | fold induction at 1 µM (read-out: Average LMP1 Fold Increase, Kem I cells, 1 uM, 48 hours, average of replicates 1 and 2): 9.03; fold induction at 1 µM (read-out: Replicate 1-LMP1 Fold Increase, Kem I cells, 1 uM, 48 hours, fold change in LMP1 transcript vs vehicle): 15.3; fold induction at 1 µM (read-out: Replicate 2-LMP1 Fold Increase, Kem I cells, 1 uM, 48 hours, fold change in LMP1 transcript vs vehicle): 2.79
CCOC(=O)c1ccc(N2NC(=O)/C(=C/c3ccc([N+](=O)[O-])o3)C2=O)cc1 [PYR-41] | 0.49 | 0.50 | 0.49 | 
C1=N/C2=N/c3ccc(OCCN4CCCC4)c(c3)COC/C=C/COCc3cccc(c3)C(=C1)N2 [Pacritinib (SB1518)] | 0.37 | 0.24 | 0.49 | 
CC(=O)c1c(C)c2cnc(Nc3ccc(N4CCNCC4)cn3)nc2n(C2CCCC2)c1=O.Cl [Palbociclib (PD-0332991) HCl] | 1.34 | 0.77 | 1.91 | 
